Where two headings read alike, the source gives them in different places. Where only a bound is given, the exact number is not on record here.

Data set [1] has as its system p38 MAPKs or JNKs. To be noted: Kuma, Y. (2005); cited from earlier work.
Data set [2] deals with Differentiated U937 cells. Description: MTT assay (cell viability). The format is cell-based, human. To be noted: loss of cell viability at 1 μg/ml. The essentials: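 Differentiated U937 cells pre-incubated with compound 4 h in 5% FCS or 24 h in 10% FCS; MTT read at 550 nm after DMSO solubilisation. Percentage loss of viability relative to 0.5% DMSO vehicle; apparent increases appear as negative percentages.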
Background: Tetrazolium dyes change colour on reduction, which living cells bring about.

Data set [3] relates to mice. As to the kind of experiment: LPS-induced neutrophils accumulation in mice. The format is in vivo.
Data set [4] has as its system THP-1 cells. As to the kind of experiment: LPS-induced TNF alpha release in THP-1 cells. The format is cell-based. To be noted: Homo sapiens, THP-1, read-out: THP-1 (LPS) TNFα IC50. The method, then:
LPS-Induced TNF Alpha Release in THP-1 Cells: Potency […] Coli; O111:B4, Sigma) for 4 hr and the supernatant collected for determination of TNFα concentration by sandwich ELISA (Duo-set, R&D systems). The inhibition of TNFα production was calculated at each concentration by comparison with vehicle control.

For data set [5], the target named is T1, p38 MAPK alpha (MAPK14) (Homo sapiens, UniProt Q16539).
T1 construct: purchased Invitrogen
Description: Enzyme inhibition assay, p38 MAPK alpha (FRET, Z-LYTE, via MAPKAP-K2). To be noted: read-out: Enzyme p38α IC50. The format is biochemical.

Data set [6] relates to U937 cells. As to the kind of experiment: LPS-induced TNF alpha release in U937 cells. The format is cell-based. As to conditions: Homo sapiens; read-out: DU937 (LPS) TNFα REC50. The essentials:
(§1)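 U937 cells differentiated with PMA (100 ng/ml) for 48 to 72 hours, pre-treated with compound for 2 hrs, then stimulated with E. coli O111:B4 LPS for 4 hrs. Supernatant TNFα and IL-8 measured by sandwich ELISA; inhibition at each concentration versus vehicle control.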

In data set [7] the test system is U937 cells. As to the kind of experiment: LPS-induced IL-8 release in U937 cells. The format is cell-based. As to conditions: Homo sapiens, read-out: DU937 (LPS) IL-8 IC50. The essentials: as §1
Data set [8] deals with BEAS2B cells. Description: Poly I:C-induced ICAM-1 induction in BEAS2B cells. The format is cell-based. To be noted: Homo sapiens, BEAS-2B, read-out: BEAS2B (polyIC) ICAM1 IC50. Summed up:
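Poly I:C (1 ug/ml) transfected into BEAS2B cells after 2 h compound pre-incubation. Surface ICAM-1 measured by cell-based ELISA 18 h post-transfection (HRP, OD450–655), corrected for cell number by OD595.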

Data set [9] concerns A/J mice. As to the kind of experiment: Cigarette smoke model. The format is in vivo. As to conditions: 50 μg/mL (35 μl, bid) intra-nasally, cigarette smoke exposed mice. Here is the method: Cigarette Smoke Model A/J mice (males, 5 weeks old) were exposed to cigarette smoke (4% cigarette smoke, diluted with compressed air) for 30 min/day for 11 days using a Tobacco Smoke Inhalation Experiment System for small animals (Model SIS-CS; Sibata Scientific Technology, Tokyo, Japan). Test substances were given intra-nasally (35 μL of solution in 50% DMSO/PBS) and therapeutically twice daily for 3 days after the final cigarette smoke exposure. Twelve hours after the last dosing, animals were anesthetized, the trachea cannulated and bronchoalveolar lavage fluid (BALF) was collected.

Data set [10] deals with Dunkin-Hartley guinea-pigs. As to the kind of experiment: Ovalbumin challenge/parainfluenza infection model. The format is in vivo. As to conditions: nebulised 1.5 mg per day; sensitized animals treated with PIV3 medium; initial studies.

T1 sequence (Q16539 whole entry): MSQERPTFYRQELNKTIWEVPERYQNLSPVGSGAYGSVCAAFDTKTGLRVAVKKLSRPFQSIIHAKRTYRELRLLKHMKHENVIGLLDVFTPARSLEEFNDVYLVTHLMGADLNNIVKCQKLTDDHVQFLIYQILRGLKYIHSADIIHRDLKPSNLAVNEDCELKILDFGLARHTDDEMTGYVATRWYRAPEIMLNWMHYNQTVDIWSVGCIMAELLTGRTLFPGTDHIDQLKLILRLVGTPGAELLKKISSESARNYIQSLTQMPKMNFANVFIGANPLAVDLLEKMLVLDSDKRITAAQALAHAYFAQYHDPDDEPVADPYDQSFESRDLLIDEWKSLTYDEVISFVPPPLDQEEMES

As for `Cc1ccc(-n2nc(C(C)(C)C)cc2NC(=O)Nc2ccc(OCCN3CCOCC3)c3ccccc23)cc1` [BIRB 796], the “phosphorylation of p38 MAPKs or JNKs by the upstream kinase MKK6 or MKK4” value in data set [1] is recorded as “impaired the phosphorylation of p38 MAPKs or JNKs”.

Regarding `Cc1ccc(-n2nc(C(C)(C)C)cc2NC(=O)Nc2ccc(Oc3ccnc(NC(=O)N4CCOCC4)c3)c3ccccc23)cc1` [Example 42, N-(4-(4-(3-(3-tert-Butyl-1-p-tolyl-1H-pyrazol-5-yl)ureido)naphthalen-1-yloxy)pyridin-2-yl)morpholine-4-carboxamide], the “DU937 (cell viability) MTT assay 4 h” value in data set [2] (Table 3, first MTT column) is on record as “− (<=30%)”; in data set [2] (Table 3, second MTT column) it was “− (<=30%)”. Moreover, the “Neutrophil numbers in BAL” value in data set [3] (0.2 mg/ml intra tracheal, 8 hr pre-dose, BALF 8 h after LPS, mean ± SEM, n = 8) is 8.60 ± 1.59 ×10^5/mL. Also, the IC50 (in general, the point on the concentration scale where inhibition reaches its midpoint) in data set [4] (Table 3) was under 0.01 µM; in data set [5] (Table 3) it was under 5 µM; in [7] (Table 3), under 5 µM; in data set [8] (Table 3) it was under 0.01 µM. Further, the EC50 in data set [6] is under 0.01 µM.

As for `CCC(=O)O[C@]1(C(=O)SCF)[C@H](C)C[C@H]2[C@@H]3C[C@H](F)C4=CC(=O)C=C[C@]4(C)[C@@]3(F)[C@@H](O)C[C@@]21C` [fluticasone propionate], in data set [3] (50 μg/mL (35 μl, bid)), the “inhibition of LPS-induced neutrophil accumulation” value is recorded as over 80%. In [9], the “macrophage accumulation into airways” value is “did not inhibit” and the “neutrophil accumulation into airways” value is recorded as “did not inhibit”. Moreover, the “ovalbumin-mediated lung function changes” value in [10] was “inhibited ovalbumin-mediated lung function changes”.

For `COCC(=O)Nc1cc(Oc2ccc(NC(=O)Nc3cc(C(C)(C)CO)nn3-c3ccc(C)cc3)c3ccccc23)ccn1` [Example 9, N-(4-(4-(3-(3-(1-Hydroxy-2-methylpropan-2-yl)-1-p-tolyl-1H-pyrazol-5-yl)ureido)naphthalen-1-yloxy)pyridin-2-yl)-2-methoxyacetamide], the “DU937 (cell viability) MTT assay 4 h” value in data set [2] (Table 2) is listed as “− (<=30%)”. For the same compound, the “DU937 (cell viability) MTT assay 24 h” value in [2] (Table 2) is “− (<=30%)”. For the same compound, the half-inhibitory concentration (IC50) is under 0.01 µM in data set [4] (Table 2), under 0.01 µM in data set [5] (Table 2), under 0.01 µM in [7] (Table 2) and under 5 µM in data set [8] (Table 2). In addition, the EC50 in data set [6] was under 0.01 µM.

Regarding `COCC(=O)Nc1cc(Oc2ccc(NC(=O)Nc3cc(C(C)(C)C)nn3-c3ccc(C)cc3)cc2)ccn1` [Example 22, N-(4-(4-(3-(3-tert-Butyl-1-p-tolyl-1H-pyrazol-5-yl)ureido)phenoxy)pyridin-2-yl)-2-methoxyacetamide], in data set [2] (Table 2), the “DU937 (cell viability) MTT assay 4 h” value is “− (<=30%)”. Further, the “DU937 (cell viability) MTT assay 24 h” value in data set [2] (Table 2) is recorded as “+ (>30%)”. For the same compound, the 50% inhibitory concentration (IC50) in [4] (Table 2) is under 0.01 µM; in data set [5] (Table 2) it was under 5 µM; in data set [7] (Table 2), under 0.01 µM; in data set [8] (Table 2), under 5 µM. For the same compound, the EC50 in data set [6] was under 0.01 µM.

The values are drawn from patent US8299074B2, “P38 MAP kinase inhibitors” (RespiVert Ltd., priority 2008, dated 2012).
